Reference: patent US8637252B2, “Methods and compositions for determining altered susceptibility of HIV-1 to anti-HIV drugs” (Monogram Biosciences, Inc., priority 2011, dated 2014)

How the values were obtained:
Assay type in all cases: cell-based
[1] = test system: HIV-1 patient-derived test vectors with site-directed reverse transcriptase mutations; experiment: phenotypic drug resistance test, site-directed reverse transcriptase mutants in patient backgrounds
Method: In addition, using conventional technique, the T369I mutation was introduced into a resistance test vector comprising PR-RT segment derived from patient sample 62, which comprises mutations A62V, Q102K, K103N, K122E, D123N, C162S, D177E, 1178L, M184V, T200A, Q207E, T215Y, P243S, V245Q, A272P and R277K in reverse transcriptase. Among these mutations, K103N correlates with resistance to a number of NNRTIs, including NVP. This patient sample was tested for resistance to an NNRTI using the methods described above.
(§1) To further analyze the effects of N348I, T369I, and E399D on NNRTI resistance, an additional series of site directed mutants was constructed in non-wild-type backgrounds. In particular, site-directed mutants comprising the N348I, T369I, or E399D mutation were constructed in POL-containing test vectors obtained from three different patient samples. Results from these experiments are presented as FIG. 11.
as §1, with “on AZT” for “on NNRTI”, “the N3481,” for “the N348I,”, “from two” for “from three”, “samples.” for “samples. Results from these experiments are presented as FIG. 11.”

[2] = test system: HIV-1 NL4-3 site-directed reverse transcriptase mutants; experiment: phenotypic drug resistance test, site-directed reverse transcriptase mutants in NL4-3 background (POL segment assay)
Method: Further, a site directed double mutant T3691/K103N was generated using conventional techniques and tested for resistance to an NNRTI using the methods described above.
To assess the effects of mutations at positions 348, 369, and 399, a series of site-directed mutants were constructed in an wild-type (NL4-3) background. The NNRTI susceptibility phenotypes of these mutants were then determined using the POL segment assay according to Example 2.
In particular, site-directed mutants were constructed in an NL4-3 background comprising N348I, T369I, E399D, or the combination of N3481 and T369I.
Next, a series of site-directed mutants were constructed to assess the effects of combinations of N3481, T369I, and E399D with previously recognized NNRTI resistance mutations. In particular, mutants comprising N348I, T369I, and E399D were made in combination with G190S, with K103N, and with the combination of K103R and V179D. The effects of these combinations on DLV, EFV, and NVP susceptibility were tested using the POL segment assay according to the method describe in Example 2. The results from these experiments are presented as FIG. 10.
To assess the specific effects of mutations at positions 348, 369, and 399, a series of site-directed mutants were constructed in an wild-type (NL4-3) background. The AZT susceptibility phenotype of these mutants were then determined with a POL segment assay according to Example 2.
In particular, site-directed mutants were constructed in an NL4-3 background comprising N348I, T3691, E399D, or the combination of N348I and T3691. The FC in AZT susceptibility for each mutant is shown as FIG. 13.

[3] = test system: HIV-1 NL4-3 and IIIB site-directed integrase mutants; experiment: phenotypic INSTI susceptibility test, site-directed integrase mutants in NL4-3 or IIIB background (RHIN segment assay)
Method: To assess the effects of mutations at positions 97 and 156 of integrase, two site-directed mutants (T97A and K156N) were constructed in two different wild-type (NL4-3 and IIIB) genetic backgrounds. The INSTI susceptibility phenotypes of these mutants to diketo acid 1, diketo acid 2, and L-870,810 were then determined using the RHIN segment assay according to Example 2.
In particular, site-directed mutants were constructed in an NL4-3 or IIIB background comprising either T97A or K156N. The FC in susceptibility to diketo acid 1, diketo acid 2, and L-870,810 for each mutant is shown as FIG. 18.
Next, a series of site-directed mutants were constructed to assess the effects of combinations of T97A and K156N with previously recognized INSTI resistance mutations. In particular, mutants comprising T97A, K156N, and the combination of T97A and K156N were made in combination with three constellations of previously recognized INSI mutations (V721, F121Y, and T125K; N155S; and T66I and M1541). Each of these combinations was made in a IIIB background. The effects of these combinations on diketo acid 1, diketo acid 2, and L-870,810 susceptibility were tested with the RHIN segment assay according to the method described in Example 2.

[4] = test system: HIV-1 (patient-derived RHIN segment); experiment: phenotypic drug resistance test, resistance test vectors with patient-derived RHIN segment, luciferase, 293 cells
Text: Patient-derived segment(s) corresponding to the entire pol gene, encoding HIV protease, reverse transcriptase (including RNAse H), and integrase (hereinafter “POL”), the portion of pol encoding amino acids 1-305 of reverse transcriptase (hereinafter “PR-RT”), the portion of pol encoding amino acids 319-440 of reverse transcriptase (including RNAse H), and integrase (hereinafter “RHIN”), were amplified by the reverse transcription-polymerase chain reaction method (RT-PCR) using viral RNA isolated from viral particles present in the plasma or serum of HIV-infected individuals as described below. The portion of pol encoding protease, amino acids 1-531 of reverse transcriptase (including RNase H) (hereinafter “PRRT-RH”), or the portion of pol encoding protease, reverse transcriptase (including RNAse H) and integrase (hereinafter “PRRT-RHIN”), were assembled from amplicons described above by standard recombinant DNA techniques involving a KpnI restriction site at amino acid 400 or a Pin A1 site at amino acid 315.
Virus was pelleted by centrifugation at 20,400×g for 60 min from plasma (typically, 1 ml) prepared from blood samples collected in evacuated tubes containing either EDTA, acid-citrate dextrose, or heparin as an anticoagulant. Virus particles were disrupted by resuspending the pellets in 200 [1.1 of lysis buffer (4 M guanidine thiocyanate, 0.1 M Tris HCl (pH 8.0), 0.5% sodium lauryl sarcosine, 1% dithiothreitol). RNA was extracted from viral lysates by using oligo(dT) linked to magnetic beads (Dynal, Oslo, Norway). Reverse transcription was performed with Superscript III (Invitrogen) at 50 degrees for 1 hour using primer 1.
From the resultant cDNA either POL or RHIN sequences were amplified using the Advantage High Fidelity PCR kit (BD Biosciences; Clontech). POL amplification products are made using forward Primer 3 containing an Apal site and reverse Primer 4 containing a Xho 1 site. RHIN amplification products are made using forward Primer 2 containing a P1NA1 site and reverse Primer 4 containing a Xho 1 site.
A retroviral vector designed to measure antiretroviral drug susceptibility was constructed by using an infectious molecular clone of HIV-1. The vector, referred to herein as an indicator gene viral vector (IGVV), is replication defective and contains a luciferase expression cassette inserted within a deleted region of the envelope (env) gene. The IGVV is described in U.S. Pat. No. 5,837,464 (International Publication Number WO 97/27319) which is hereby incorporated by reference in its entirety. This retroviral vector was further modified to allow insertion of either the entire pol gene (POL) or the portion of poi encoding amino acids 319-440 of reverse transcriptase, the RNase H portion of reverse transcriptase, and integrase (REIN) by engineering an Xho l restriction enzyme recognition site into vif. Prior to doing this, an Xho 1 site in nef was deleted. Resistance Test vectors (RTVs) were constructed by incorporating amplified POL or RHIN into the IGVV by using Apal and Xhol or PinAI and Xho 1 restriction sites respectively. RTVs were prepared as libraries (pools) in order to capture and preserve the pol or RHIN sequence heterogeneity of the virus in the patient. POL amplification products were digested with Apal and Xhol, purified by agarose gel electrophoresis, and ligated to ApaI- and Xhol-digested IGVV DNA. RHIN amplification products were digested with PinAI and Xho/, purified by agarose gel electrophoresis, and ligated to PinAI and Xhol-digested IGVV DNA. Ligation reactions were used to transform competent Escherichia coli (Invitrogen, Carlsbad, Calif.). An aliquot of each transformation was plated onto agar, and colony counts were used to estimate the number of patient-derived segments represented in each RTV library. RTV libraries that comprised less than 50 members are not considered representative of the patient virus. […]

| Structure (SMILES) | change in resistance on addition of mutation ([1]; E399D mutation, patient 45 or patient 50 background) | change in resistance on addition of mutation ([1]; N348I and T369I mutations, all tested patient backgrounds (patients 45, 50)) | FC in susceptibility ([2]; site-directed mutant E399D in NL4-3 background) | FC in susceptibility ([2]; site-directed mutant N348I and T369I combination in NL4-3 background) | FC in susceptibility ([2]; site-directed mutant N348I in NL4-3 background) | fold change for IC50 ([2]; site-directed mutant T369I in NL4-3 background) [fold] | effect of mutation on resistance ([3]; T97A alone or with V72I/F121Y/T125K, N155S, or T66I/M154I, IIIB background) | effect of mutation on susceptibility ([3]; integrase K156N in NL4-3 and IIIB backgrounds) | effect of mutation on susceptibility ([3]; integrase T97A in NL4-3 and IIIB backgrounds) | FC in susceptibility relative to wild-type (NL4-3) ([4]; nine of 128 patient samples, containing integrase K156N) | FC in susceptibility relative to wild-type (NL4-3) ([4]; three of 128 patient samples, containing integrase T97A) |
| --- | --- | --- | --- | --- | --- | --- | --- | --- | --- | --- | --- |
| Cc1cn([C@H]2C[C@H](N=[N+]=[N-])[C@@H](CO)O2)c(=O)[nH]c1=O [AZT] | did not significantly increase | increased resistance | < 2 | > 2 | > 2 | > 2 | – | – | – | – | – |
| O=C(NCc1ccc(F)cc1)c1nc(N2CCCCS2(=O)=O)c2cccnc2c1O [L-870,810] | – | – | – | – | – | – | increased resistance | increased susceptibility | reduced susceptibility | < 0.5 | increased FC |
